Test results published in US7723071B2 (priority 1992, dated 2010).
Peptide text beside a SMILES is read from it.

How the values were obtained:
[1] = target: receptor encoded by the DOR-1 clone (delta opioid receptor) (Mus musculus, UniProt P32300, V68C)
[2] = target: T1, DOR-2 (mMOR-1) mu receptor (Mus musculus, UniProt P42866, H54D/R258Q/R47P/S53N/V245G); assay type: binding, murine
T1 construct: expressed in transfected cells

[3] = target: DOR-1 clone (delta opioid receptor) (Mus musculus, UniProt P32300, V68C)
Chain of DOR-1 clone (delta opioid receptor) (P32300 whole entry V68C): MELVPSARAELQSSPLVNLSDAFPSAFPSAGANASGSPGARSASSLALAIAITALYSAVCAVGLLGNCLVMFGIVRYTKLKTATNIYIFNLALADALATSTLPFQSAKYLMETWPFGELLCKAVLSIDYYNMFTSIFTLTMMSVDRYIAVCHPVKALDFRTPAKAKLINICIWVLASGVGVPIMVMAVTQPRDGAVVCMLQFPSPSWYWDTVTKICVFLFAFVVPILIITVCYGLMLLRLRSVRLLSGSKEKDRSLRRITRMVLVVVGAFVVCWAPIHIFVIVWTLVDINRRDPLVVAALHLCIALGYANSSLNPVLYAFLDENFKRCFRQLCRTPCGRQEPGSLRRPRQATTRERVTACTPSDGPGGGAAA

Chain of receptor encoded by the DOR-1 clone (delta opioid receptor) (P32300 whole entry V68C): as above
T1 sequence (P42866 whole entry R47P/S53N/H54D/V245G/R258Q): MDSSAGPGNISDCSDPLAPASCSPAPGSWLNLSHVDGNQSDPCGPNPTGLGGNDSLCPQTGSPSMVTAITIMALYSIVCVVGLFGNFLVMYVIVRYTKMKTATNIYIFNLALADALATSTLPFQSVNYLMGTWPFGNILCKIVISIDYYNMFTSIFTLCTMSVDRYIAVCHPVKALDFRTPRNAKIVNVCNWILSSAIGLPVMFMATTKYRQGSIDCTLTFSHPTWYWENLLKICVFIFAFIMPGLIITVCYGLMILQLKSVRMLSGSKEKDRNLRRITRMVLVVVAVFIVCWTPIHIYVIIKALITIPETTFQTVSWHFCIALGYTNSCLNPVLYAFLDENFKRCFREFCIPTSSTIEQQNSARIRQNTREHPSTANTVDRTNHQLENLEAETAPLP
Text for opiate receptors: The purification of mono-iodinated from di-iodinated and non-iodinated DADLE by the HPLC step yields a ligand with very high specific activity (approximately 2000 Ci/mmol).

Compound	displacement of 3H-diprenorphine [1]	displacement of 3H-DPN [2]	displacement of 125I-DADLE binding [3]	displacement of 3H-diprenorphine, rank in decreasing order of affinity [1]	binding affinity compared with DADLE (opiate receptors)
C[C@@H](NC(=O)[C@@H](N)Cc1ccc(O)cc1)C(=O)NCC(=O)N(C)[C@@H](Cc1ccccc1)C(=O)NCCO [DAGO, D-Alka^2-N-MePhe^4-Gly-ol^5-enkephalin]	Only weak displacement	displacement of ^3H-DPN by nanomolar concentrations	did not displace		
CN1CC[C@]23CCCC[C@H]2[C@H]1Cc1ccc(O)cc13 [levorphanol]	displaced		did displace	in decreasing order of affinity, was observed with diprenorphine, etorphine, levorphanol and morphine	
NC(=O)[C@@H]1CCCN1C(=O)[C@H](Cc1ccccc1)NC(=O)[C@@H]1CCCN1C(=O)[C@@H](N)Cc1ccc(O)cc1 [morphiceptin] (H-YPFP-NH2)		displacement of ^3H-DPN by nanomolar concentrations			
mono-^125I-2dAla, 5dLeu enkephalin [^125I-DADLE]					slightly lower
